Test results as given in EP4786466A1, “QUINAZOLINE DERIVATIVE, SALT THEREOF, AND PHARMACEUTICAL COMPOSITION COMPRISING SAME AS ACTIVE INGREDIENT” (Korea Research Institute of Chemical Technology, priority 2023, dated 2025).
Like-named read-outs stand apart in the source and are kept apart here.

Assays:
[1] = system: MCF7 breast cancer cell lines; assay: Cell viability analysis, WST-8 assay, MCF7; details: Homo sapiens, MCF7, 72 h; for viability at 1 µM: read-out: Cell viability (%) WST-8, MCF7 (1 µM), compound 1 µM, 72 hours; for viability at 1.25 µM: read-out: Cell viability (%) WST-8, MCF7, footnote a: concentration 1.25 µM, 72 hours
Description: (§1) MCF7 breast cancer cell lines and MCF10A normal breast cancer cell lines were treated with serial dilutions of the compounds of the present invention ranging from 1 µM to 15.63 nM for 72 hours. Cell viability was measured by the WST-8 assay (Cyto XTM cell viability assay kit; LPS solution, Daejeon, Korea) according to the manufacturer's instructions.

pENSA = pENSA level by immunofluorescence (described method: in vitro kinase analysis with GST-tag-MASTL and His-tag-ENSA); type: cell-based; details: for pENSA (%) Immunofluor ecense (1 µM): compound 1 µM
In short: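 In vitro kinase reaction using recombinant GST-tagged MASTL with His-tagged ENSA as substrate; phosphorylated ENSA (pENSA) serves as read-out of MASTL activity. Cell lines named: MCF7 breast cancer and MCF10A.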

[2] = molecular target: T1, Recombinant GST-TAG-MASTL (Homo sapiens, UniProt Q96GX5); assay: HTRF-based kinase assay (HTRF KinEASE assay kit); type: biochemical; details: for activity at 1 µM: read-out: MASTL activity (%) HTRF (1 µM); for activity at 10 µM: footnote b: concentration 10 µM; for activity at 10 µM / activity at 1.25 µM: read-out: MASTL activity (%) HTRF; for activity at 1.25 µM: footnote a: concentration 1.25 µM
T1 construct: GST; purchased Thermo Fisher Scientific
T1 sequence (Q96GX5 1-879): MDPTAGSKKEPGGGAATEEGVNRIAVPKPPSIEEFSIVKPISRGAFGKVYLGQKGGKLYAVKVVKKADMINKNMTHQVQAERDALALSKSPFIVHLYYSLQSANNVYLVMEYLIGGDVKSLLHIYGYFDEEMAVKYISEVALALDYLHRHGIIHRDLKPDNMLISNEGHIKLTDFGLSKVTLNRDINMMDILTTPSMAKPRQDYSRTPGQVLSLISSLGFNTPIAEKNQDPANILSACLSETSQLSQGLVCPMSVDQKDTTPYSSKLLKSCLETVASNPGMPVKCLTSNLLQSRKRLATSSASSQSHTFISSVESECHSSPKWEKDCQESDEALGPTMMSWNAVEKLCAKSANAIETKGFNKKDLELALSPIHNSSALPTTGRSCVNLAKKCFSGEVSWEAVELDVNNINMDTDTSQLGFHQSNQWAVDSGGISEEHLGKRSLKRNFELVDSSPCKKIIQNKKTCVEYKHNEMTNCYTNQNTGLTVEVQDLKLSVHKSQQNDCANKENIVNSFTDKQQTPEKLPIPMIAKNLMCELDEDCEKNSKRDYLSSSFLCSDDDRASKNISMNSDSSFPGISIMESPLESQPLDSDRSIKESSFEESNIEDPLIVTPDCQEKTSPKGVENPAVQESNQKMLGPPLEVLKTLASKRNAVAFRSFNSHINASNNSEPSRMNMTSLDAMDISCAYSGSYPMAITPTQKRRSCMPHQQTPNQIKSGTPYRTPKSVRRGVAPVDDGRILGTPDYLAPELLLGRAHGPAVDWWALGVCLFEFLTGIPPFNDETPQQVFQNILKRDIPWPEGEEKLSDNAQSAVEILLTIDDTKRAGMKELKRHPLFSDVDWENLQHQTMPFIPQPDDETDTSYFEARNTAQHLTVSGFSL
From the text: Recombinant GST-TAG-MASTL (Thermo Fisher Scientific, MA, USA) was used for HTRF-based kinase assays. The HTRF KinEASE assay kit (CisBio, MA, USA) was used according to the manufacturer's instructions.

[3] = system: MCF10A normal breast cell lines; assay: Cell viability analysis, WST-8 assay, MCF10A; details: Homo sapiens, MCF-10A, 72 h
Description: as §1

in vitro = details: human, mcf10a cells
Description: as §1

[4] = read-out: IC50(nM) Cell viability (MCF7)
[5] = HTRF, read-out: IC50(nM) MASTL activity
[6] = read-out: IC50(nM) Cell viability (MCF10A)
[7] = HTRF, unit µM, read-out: IC50 MASTL activity
[8] = read-out: IC50 Cell viability (MCF7)
[9] = read-out: IC50 Cell viability (MCF10A)

Structure (SMILES) | viability at 1 µM [1] [%] | IC50 [1, 4] [nM] | pENSA (%) Immunofluor ecense (1 µM) (pENSA) [%] | IC50 (pENSA; read-out: IC50(nM) pENSA) [nM] | IC50 [2, 5] [nM] | activity at 1 µM ([2]; compound 1 µM) [%] | IC50 [3, 6] [nM] | viability at 1 µM (in vitro) [%] | IC50 [2, 7] [nM] | IC50 [1, 8] [nM] | viability at 1.25 µM [1] [%] | activity at 10 µM [2] [%] | IC50 [3, 9] [nM] | viability at 1.25 µM (in vitro) [%] | IC50 (pENSA; unit µM, read-out: IC50 pENSA) [nM] | activity at 1.25 µM [2] [%] | IC50 [2] [nM] | activity at 1 µM [2] [%]
NC(=O)c1ccc(Nc2nc(Nc3cc(C4CC4)[nH]n3)c3ccccc3n2)cc1 [compound 4t, 4-((4-((5-cyclopropyl-1G-pyrazol-3-yl)amino)quinazolin-2-yl)amino)benzamide] | 2.7 | 324 | 0.9 | 341 | 198 | 14.9 | 226 | 18.4 | – | – | – | – | – | – | – | – | – | –
NC(=O)Cc1ccc(Nc2nc(Nc3cc(C4CC4)[nH]n3)c3ccccc3n2)cc1 [compound 4u, 2-(4-((4-((5-cyclopropyl-1G-pyrazol-3-yl)amino)quinazolin-2-yl)amino)phenyl)acetamide] | 64.8 | – | 41.2 | – | 392 | 30.5 | 718 | 25.5 | – | – | – | – | – | – | – | – | – | –
Nc1ccc(Nc2nc(Nc3cc(C4CC4)[nH]n3)c3ccccc3n2)cc1 [compound 4v, M^2-(4-aminophenyl)-M^4-(5-cyclopropyl-1G-pyrazol-3-yl)quinazoline-2,4-diamine] | 32.8 | 390 | 15.3 | – | – | 41.4 | 438 | 34.1 | 1500 | – | – | – | – | – | – | – | – | –
CC(C)(C)OC(=O)NCCNC(=O)c1ccc(Nc2nc(Nc3cc(C4CC4)[nH]n3)c3ccccc3n2)cc1 [compound 4w, sdqs-butyl (2-(4-((4-((5-cyclopropyl-1G-pyrazol-3-yl)amino)quinazolin-2-yl)amino)benzamido)ethyl)carbamate] | 72 | – | 135 | – | – | 48.5 | 908 | 63.4 | 1300 | 1800 | – | – | – | – | – | – | – | –
c1ccc2c(Nc3cc(C4CC4)[nH]n3)nc(N3CCC4(CC3)OCCO4)nc2c1 [compound 6a, M-(5-cyclopropyl-1G-pyrazol-3-yl)-2-(1,4-dioxa-8-azaspiro[4.5]decan-8-yl)quinazolin-4-amine] | 13.2 | 499 | 10.1 | 532 | 340 | 15.2 | 392 | 20.9 | – | – | – | – | – | – | – | – | – | –
Cc1ccc(C2=CCN(c3nc(Nc4cc(C5CC5)[nH]n4)c4ccccc4n3)CC2)c(C)c1 [compound 6j, M-(5-cyclopropyl-1G-pyrazol-3-yl)-2-(4-(2,4-dimethylphenyl)-3,6-dihydropyridin-1(2G)-yl)quinazolin-4-amine] | 45.6 | 674 | 97.4 | – | – | 80 | 566 | 33.1 | – | – | – | – | – | – | – | – | – | –
Cc1cc(Cl)ccc1C1=CCN(c2nc(Nc3cc(C4CC4)[nH]n3)c3ccccc3n2)CC1 [compound 6l, 2-(4-(4-chloro-2-methylphenyl)-3,6-dihydropyridin-1(2G)-yl)-M-(5-cyclopropyl-1G-pyrazol-3-yl)quinazolin-4-amine] | 47.8 | 484 | 101 | – | – | 76.1 | 332 | 15.2 | – | – | – | – | – | – | – | – | – | –
CC(C)C(=O)N1CC=C(c2nc(Nc3cc(C4CC4)[nH]n3)c3ccccc3n2)CC1 [compound 9b, 1-(4-(4-((5-cyclopropyl-1G-pyrazol-3-yl)amino)quinazolin-2-yl)-3,6-dihydropyridin-1(2G)-yl)-2-methylpropan-1-one] | 52.5 | – | 34.6 | 832 | 136 | 21.7 | 316 | 12.3 | – | 1000 | – | – | – | – | – | – | – | –
c1ccc2c(Nc3cc(C4CC4)[nH]n3)nc(N3CCNCC3)nc2c1 [compound 11, M-(5-cyclopropyl-1G-pyrazol-3-yl)-2-(piperazin-1-yl)quinazolin-4-amine] | – | – | 66.4 | – | – | – | – | – | 1000 | 3200 | 104 | 18.1 | 4100 | 98 | – | – | – | –
CN1CCN(c2nc(Nc3cc(C4CC4)[nH]n3)c3ccccc3n2)CC1 [compound 12a, M-(5-cyclopropyl-1G-pyrazol-3-yl)-2-(4-methylpiperazin-1-yl)quinazolin-4-amine] | – | 697 | 63.8 | – | – | – | – | – | – | – | 26.2 | 26.3 | 2400 | 82.3 | 1100 | – | – | –
OCCN1CCN(c2nc(Nc3cc(C4CC4)[nH]n3)c3ccccc3n2)CC1 [compound 12b, 2-(4-(4-((5-cyclopropyl-1G-pyrazol-3-yl)amino)quinazolin-2-yl)piperazin-1-yl)ethan-1-ol] | – | – | 41.7 | 852 | 807 | – | 2600 | – | – | 1500 | 69.4 | 17.7 | – | 123 | – | – | – | –
CCNC(=O)N1CCN(c2nc(Nc3cc(C4CC4)[nH]n3)c3ccccc3n2)CC1 [compound 12c, 4-(4-((5-cyclopropyl-1G-pyrazol-3-yl)amino)quinazolin-2-yl)-M-ethylpiperazine-1-carboxamide] | – | – | 75.8 | – | – | – | – | – | – | – | 107 | 45.7 | 1400 | 61.3 | – | – | – | –
O=C(Nc1ccc(F)cc1)N1CCN(c2nc(Nc3cc(C4CC4)[nH]n3)c3ccccc3n2)CC1 [compound 12d, 4-(4-((5-cyclopropyl-1G-pyrazol-3-yl)amino)quinazolin-2-yl)-M-(4-fluorophenyl)piperazine-1-carboxamide] | – | – | 46.3 | 571 | 832 | – | – | – | – | 1500 | 55.8 | 14.1 | 1500 | 63.7 | – | – | – | –
CC(C)(C)OC(=O)N1CC2CC1CN2c1nc(Nc2cc(C3CC3)[nH]n2)c2ccccc2n1 (stereo not shown) [compound 13, sdqs-butyl 5-(4-((5-cyclopropyl-1G-pyrazol-3-yl)amino)quinazolin-2-yl)-2,5-diazabicyclo[2.2.1]heptane-2-carboxylate] | – | 932 | 90 | – | – | – | 316 | – | 1000 | – | 62 | – | – | 15.9 | – | 53.8 | – | –
c1ccc2c(Nc3cc(C4CC4)[nH]n3)nc(N3CC4CC3CN4)nc2c1 (stereo not shown) [compound 14, 2-(2,5-diazabicyclo[2.2.1]heptan-2-yl)-M-(5-cyclopropyl-1G-pyrazol-3-yl)quinazolin-4-amine Trifluoroacetic acid] | 21.8 | 647 | 9.2 | 645 | – | – | – | 63.4 | – | – | – | – | 1700 | – | – | – | 593 | 25.5
CCNC(=O)N1CC2CC1CN2c1nc(Nc2cc(C3CC3)[nH]n2)c2ccccc2n1 (stereo not shown) [compound 15a, 5-(4-((5-cyclopropyl-1G-pyrazol-3-yl)amino)quinazolin-2-yl)-M-ethyl-2,5-diazabicyclo[2.2.1]heptane-2-carboxamide] | – | – | 86.1 | – | – | – | 820 | – | 1100 | – | 61 | – | – | 37 | – | 61.1 | – | –
